Experimental data from US20230173083A1, “ALBUMIN-BINDING PRODRUG FOR PREVENTING OR TREATING CANCER AND PHARMACEUTICAL COMPOSITION INCLUDING THE SAME” (KOREA INSTITUTE OF SCIENCE AND TECHNOLOGY, priority 2021, published 2023).
No end group written: not given here. DOX = doxorubicin

Experiments:
[1] = biological target: BSA (Bos taurus, UniProt P02769); test: Formation of albumin-prodrug conjugate with BSA (SDS-PAGE); type: binding, bovine; conditions: 1 h; for formation of conjugate with BSA (SDS-PAGE band shift to 50-75 kDa): 1% BSA in PBS, room temperature
Protocol: (§1) To this end, a PBS solution (1 ml) containing 1% albumin (HSA, MSA or BSA) or 1% blocked albumin (blocked HSA, MSA or BSA) was added to 1 mg of the prodrug (Al-ProD) synthesized in Example 1 and incubated at room temperature for various times (0 h, 5 min, and 1 h). After completion of the incubation, samples were analyzed via SDS-PAGE and MALDI-TOF mass spectrometry.
(§2) τ-maleimido butyric acid was added to 1% albumin (HSA, MSA or BSA) for 1 h to block the thiol group of the albumin. In the “Blocking” row in the table of FIG. 5, the plus signs (+) represent the use of blocked albumin.

[2] = test system: MDA-MB-231 cancer tissues; test: Tumor accumulation by NIRF imaging and CLSM in cancer animal models; type: in vivo, BALB/c nude mice
Protocol: (§3) All animal experiments were conducted in accordance with the guidelines approved by the Institutional Animal Care and Use Committee of Korea Institute of Science and Technology (KIST). BALB/c nude mice (5.5 weeks old, 20-25 g, male) purchased from Nara Bio INC (Gyeonggi-do, Korea) were used as animal models. 1×10^7 MDA-MB-231 cells were inoculated into the left thigh of each of the mice (n=6) to construct establish a cancer animal model. 5 weeks after inoculation, experiments were conducted when cancer volumes were 250-300 mm^3.
(§4) After administration of the drugs, noninvasive near-infrared fluorescence (NIRF) imaging data were obtained using an in vivo fluorescence imaging system (IVIS Luminar III) to assess the in vivo tumor accumulation of the prodrug (Al-ProD). The areas under the curves of the time-concentration curves (AUCs) corresponding to the near-infrared data were calculated using Origin 2020 software.
Animal models were sacrificed 12 h after injection of the drugs and organs (liver, lung, spleen, kidney, and heart) and cancer tissues were excised therefrom. The amounts of the drugs remaining in the major organs and cancer tissues were calculated via fluorescence imaging using IVIS Luminar III. The fluorescence intensities were quantified using the Living Image software (PerkinElmer, USA) and plotted.
The organs and cancer tissues excised from the animal models were sliced into 10 µm thick sections and treated with DAPI solution for 10 min to stain the cell nuclei blue. The fluorescence of DOX or DAPI from the sections was observed using a confocal laser scanning microscope (CLSM).
(§5) Significance was indicated by *P < 0.05, **P < 0.01, ***P < 0.001.

[3] = Pharmacokinetics after intravenous administration to cancer animal models; type: in vivo, BALB/c nude mice
Protocol: as §3, §4, §5

[4] = test system: MDA-MB-231 cancer tissues; test: Anticancer efficacy in MDA-MB-231 cancer animal models; type: in vivo, BALB/c nude mice; conditions: for survival / cancer volume: equimolar to 3 mg/kg doxorubicin, tail vein; for cancer volume: FIG. 21, day not given
Protocol: as §3, with “Specifically, all” for “All”
(§6) Changes in body weight and cancer tissue volume of each group were measured and survivals were analyzed every two days from immediately after injection (day 0). The cancer tissue volume (V; mm^3) was calculated as 0.53 × largest diameter × (smallest diameter)^2. After 20 days, each group was euthanized. Major organs (liver, lung, spleen, kidney, and heart) and cancer tissues were excised and sliced into 10 µm thick sections for histological assays.
(§7) Specifically, the tissues were fixed with 10% formalin, embedded in paraffin, and sectioned to a thickness of 10 µm. The tissue sections were stained with H&E, terminal deoxynucleotidyl transferase dUTP nick-end labeling (TUNEL), and 4,6-diamidino-2-phenylindole (DAPI, Sigma-Aldrich). Structural changes and toxicities in the tissue sections were evaluated using a ZEISS light microscope or fluorescence microscope.
as §5

[5] = biological target: HSA (Homo sapiens, UniProt P02768); test: Formation of albumin-prodrug conjugate with HSA (SDS-PAGE, MALDI-TOF, RP-HPLC); type: binding; conditions: for formation of conjugate with HSA (SDS-PAGE band shift to 50-75 kDa): 1% HSA in PBS
Protocol: as §1, §2

[6] = biological target: MSA (Mus musculus, UniProt P07724); test: Formation of albumin-prodrug conjugate with MSA (SDS-PAGE); type: binding; conditions: 1 h; for formation of conjugate with MSA (SDS-PAGE band shift to 50-75 kDa): 1% MSA in PBS, room temperature
Protocol: as §1, §2

[7] = Toxicity (body weight, organ histology) in cancer animal models; type: in vivo, BALB/c nude mice
Protocol: as §3, with “Specifically, all” for “All”
as §6, §7, §5

[8] = FIG. 16
Description: Table printed on a drawing sheet, FIG. 16
First reader's note: The table stands beside a plasma concentration (%) versus time plot; the AUC cells hold the value ± its error and no AUC unit is printed.

[9] = test system: breast cancer cells (MDA-MB-231); test: Intracellular behavior of DOX by CLSM in breast cancer cells; type: cell-based; conditions: MDA-MB-231, 2 µM, 48 h
Protocol: (§8) 2×10^4 cancer cells (breast cancer cells (MDA-MB-231)) and normal cells (H9C2) were seeded in cell culture plates for confocal microscopy. As a control, MDA-MB-231 cells were treated and incubated with Cat-B-inhibitory siRNA for 24 h to inhibit the expression of cathepsin B (“MDA-MB-231 (+Cat-B inhibitor)”). […] Then, cells were washed with Dulbecco’s phosphate buffered saline (DPBS) to remove residual drug. Cells were treated with a cell fixative for 15 min and nuclei were stained blue by treatment with a DAPI solution for 10 min.

[10] = test system: rat cardiomyocytes (H9C2); test: Intracellular behavior of DOX by CLSM in normal cells; type: cell-based; conditions: H9C2, 2 µM, 48 h
Protocol: as §8

[11] = test system: breast cancer cells (MDA-MB-231); test: Cytotoxicity (CCK-8) in breast cancer cells; type: cell-based; conditions: MDA-MB231 cells, 48 h
Protocol: (§9) An in vitro cell experiment was conducted using breast cancer cells (MDA-MB-231) and rat cardiomyocytes (H9C2) to determine the cancer cell-specific cytotoxicity of the albumin-prodrug conjugate (Al-ProD+HSA). Specifically, cells were cultured and maintained in Dulbecco’s modified Eagle’s medium (DMEM) supplemented with 10% fetal bovine serum (FBS) and 1% penicillin/streptomycin in a humid atmosphere at 5% CO2 and 95% air and at 37° C. […]
(§10) Cancer cells (breast cancer cells (MDA-MB-231)) or normal cells (H9C2) were seeded at a density of 2×10^4/well in 96-well cell culture plates. […] Then, each well was treated with […] of CCK solution, followed by incubation for 30 min. The absorbance of each 96-well plate was analyzed using a microplate reader (VERSAmax™, Molecular Devices Corp., Sunnyvale, CA) at 450 nm.

[12] = test system: rat cardiomyocytes (H9C2); test: Cytotoxicity (CCK-8) in normal cells; type: cell-based; conditions: 48 h
Protocol: as §9, §10

[13] = equimolar to 3 mg/kg doxorubicin, tail vein

Sequence of MSA (P07724 25-608): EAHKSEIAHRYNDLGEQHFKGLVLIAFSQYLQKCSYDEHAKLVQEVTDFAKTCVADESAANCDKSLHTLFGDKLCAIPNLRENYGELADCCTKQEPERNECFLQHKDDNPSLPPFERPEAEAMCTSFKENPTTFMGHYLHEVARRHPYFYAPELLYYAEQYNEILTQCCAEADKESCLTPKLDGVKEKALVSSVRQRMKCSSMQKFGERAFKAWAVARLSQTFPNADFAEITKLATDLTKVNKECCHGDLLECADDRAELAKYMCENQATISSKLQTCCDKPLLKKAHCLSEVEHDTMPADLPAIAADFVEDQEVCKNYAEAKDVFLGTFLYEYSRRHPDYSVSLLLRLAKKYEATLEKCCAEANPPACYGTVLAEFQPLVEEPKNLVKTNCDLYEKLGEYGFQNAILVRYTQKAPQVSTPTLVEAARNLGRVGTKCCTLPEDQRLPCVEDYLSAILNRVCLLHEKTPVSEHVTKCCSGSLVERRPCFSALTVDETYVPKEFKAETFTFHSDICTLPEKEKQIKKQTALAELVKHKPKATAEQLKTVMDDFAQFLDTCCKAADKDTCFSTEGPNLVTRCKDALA
Sequence of BSA (P02769 25-607): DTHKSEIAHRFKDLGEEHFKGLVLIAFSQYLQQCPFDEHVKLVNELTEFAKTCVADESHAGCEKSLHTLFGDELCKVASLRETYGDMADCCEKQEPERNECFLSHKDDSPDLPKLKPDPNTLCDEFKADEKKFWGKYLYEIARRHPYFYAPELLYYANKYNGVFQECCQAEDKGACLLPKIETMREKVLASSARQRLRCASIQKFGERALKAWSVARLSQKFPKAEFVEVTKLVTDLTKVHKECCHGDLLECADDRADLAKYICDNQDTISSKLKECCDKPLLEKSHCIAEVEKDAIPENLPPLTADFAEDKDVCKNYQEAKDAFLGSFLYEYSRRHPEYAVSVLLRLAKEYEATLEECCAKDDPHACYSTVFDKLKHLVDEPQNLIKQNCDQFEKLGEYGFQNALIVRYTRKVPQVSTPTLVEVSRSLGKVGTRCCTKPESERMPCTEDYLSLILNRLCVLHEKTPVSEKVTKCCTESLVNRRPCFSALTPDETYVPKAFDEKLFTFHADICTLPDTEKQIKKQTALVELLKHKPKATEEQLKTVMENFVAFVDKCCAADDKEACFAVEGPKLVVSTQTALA

With `COc1cccc2c1C(=O)c1c(O)c3c(c(O)c1C2=O)CC(O)(C(=O)CO)CC3OC1CC(NC(=O)CNC(=O)C(CCCNC(=N)N)NC(=O)C(CCCNC(=N)N)NC(=O)C(Cc2ccccc2)NC(=O)CCOCCOCCNC(=O)CCN2C(=O)C=CC2=O)C(O)C(C)O1` (stereo not drawn) [Al-ProD] the “formation of conjugate with BSA (SDS-PAGE band shift to 50-75 kDa)” value [1] was “formed a conjugate with each albumin”, the “formation of conjugate with blocked BSA (SDS-PAGE)” value ([1]; thiol group of albumin blocked) was “failed to form a conjugate with the blocked albumin” and the “accumulation / retention in cancer tissues (NIRF imaging)” value ([2]; 0-72 h) was “a considerable quantity of DOX was retained in cancer tissues even after 72 h”. For the same compound, the “fluorescence from cancer tissues relative to free DOX group (NIRF in vivo)” value ([2]; 0-72 h after intravenous administration) was 3.33-4.08 fold, the “DOX in excised cancer tissue sections (CLSM)” value ([2]; DAPI-stained sections) was “strong DOX fluorescence from cancer tissues” and the “DOX fluorescence from excised cancer tissues relative to free DOX group” value ([2]; ex vivo, 12 h after intravenous administration) was 3.41-4.92 fold. For the same compound, the “extension of in vivo half-life” value ([3]; by binding to albumin in vivo) was “at least 3 times”, the “time remained in vivo” value [3, 13] was 50 to 150 h and the half-life ([3]; male, BALB/c nude, mouse, in vivo, 3 mg/kg, read-out: half-life (T½ (h))) was ≥ 3 h. For the same compound, the “extension of in vivo residence time compared to the simple anticancer drug” value ([3]; vs free DOX) was “at least 12 times”, the “increase of area under the curve (AUC) compared to free DOX” value ([3]; vs free DOX 3 mg/kg) was 7 fold and the “H&E and TUNEL staining of cancer tissues” value ([4]; day 20) was “induced significant damage to and apoptosis of cancer tissues”. For the same compound, the survival [4] was “over 25 days”, the cancer volume [4] was 347.42 ± 25.9 mm^3 and the “formation of conjugate with HSA (SDS-PAGE band shift to 50-75 kDa)” value ([5]; room temperature, 1 h) was “formed a conjugate with each albumin”. The “time to completion of conjugate formation with HSA” value ([5]; RP-HPLC, room temperature) was ≤ 5 min, the “conjugate formation with thiol-blocked HSA” value ([5]; RP-HPLC, up to 60 min) was “not formed for 60 min” and the “formation of conjugate with blocked HSA (SDS-PAGE)” value ([5]; thiol group of albumin blocked, 1 h) was “failed to form a conjugate with the blocked albumin”. For the same compound, the “formation of conjugate with MSA (SDS-PAGE band shift to 50-75 kDa)” value [6] was “formed a conjugate with each albumin”, the “formation of conjugate with blocked MSA (SDS-PAGE)” value ([6]; thiol group of albumin blocked) was “failed to form a conjugate with the blocked albumin” and the “H&E staining of normal tissues (heart, lung, liver, kidney, and spleen)” value ([7]; day 20) was “no significant damage”. For the same compound, the “change in body weight” value [7, 13] was “no significant changes” and the “T1/2” value [8] was 3.1 h.
For “FRRG(SEQ ID NO: 1)-DOX (FRRG-{DOX}) [reference compound]”, the “formation of conjugate with BSA (SDS-PAGE band shift to 50-75 kDa)” value [1] was “did not form conjugates with any albumin”, the “formation of conjugate with HSA (SDS-PAGE band shift to 50-75 kDa)” value ([5]; room temperature, 1 h) was “did not form conjugates with any albumin” and the “formation of conjugate with MSA (SDS-PAGE band shift to 50-75 kDa)” value [6] was “did not form conjugates with any albumin”.
In the case of `COc1cccc2c1C(=O)c1c(O)c3c(c(O)c1C2=O)C[C@@](O)(C(=O)CO)C[C@@H]3O[C@H]1C[C@H](N)[C@H](O)[C@H](C)O1` [Free DOX], the “T1/2” value [8] is reported as 0.25 h.
In the case of `COc1cccc2c1C(=O)c1c(O)c3c(c(O)c1C2=O)C[C@@](O)(C(=O)CO)C[C@@H]3O[C@H]1C[C@H](N)[C@H](O)[C@H](C)O1` [free DOX, doxorubicin, reference compound], the “intracellular location of DOX fluorescence” value [9] is reported as “penetrated the nuclei of both cancer cells and normal cells”, the “intracellular location of DOX fluorescence” value [10] is reported as “penetrated the nuclei of both cancer cells and normal cells” and the “DOX in excised cancer tissue sections (CLSM)” value ([2]; mouse, in vivo) is reported as “a very small quantity”. For the same compound, the cytotoxicity [11] was “significant cytotoxicities”, the “day on which more than half of the animals had died” value ([4]; death from systemic toxicity) was 15 days and the survival [4] was ≤ 18 days. The cancer volume [4] was 580.25 ± 139.92 mm^3, the “H&E staining of normal tissues (heart, lung, liver, kidney, and spleen)” value ([7]; mouse, in vivo) was “significant structural abnormalities were observed in all tissues” and the cytotoxicity [12] was “significant cytotoxicities”.
